Results as given in ChEMBL document CHEMBL1201861, “Genomics of Drug Sensitity in Cancer screening data, Wellcome Trust Sanger Institute”.

Tests used:
Experiment in all cases: cells
[1] = test system: TE-12; type: functional, cell-based; conditions: Homo sapiens;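 note: growth inhibition of TE-12 cells, read out by a cell viability assay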
Description: SANGER: Inhibition of human TE-12 cell growth in a cell viability assay.

[2] = test system: WM-115; type: functional, cell-based, Homo sapiens; conditions: Homo sapiens, WM-115
Description: SANGER: Inhibition of human WM-115 cell growth in a cell viability assay.

[3] = test system: COLO-680N; type: functional, cell-based, Homo sapiens; conditions: Homo sapiens, COLO-680N;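 note: cell viability assay used to measure inhibition of COLO-680N cell growth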
Description: SANGER: Inhibition of human COLO-680N cell growth in a cell viability assay.

[4] = test system: 8505C; type: functional, cell-based, Homo sapiens; conditions: Homo sapiens, 8505C
Description: SANGER: Inhibition of human 8505C cell growth in a cell viability assay.

[5] = test system: BHY; type: functional, cell-based, Homo sapiens; conditions: Homo sapiens, BHY;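 note: cell growth inhibition read out by a viability assay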
Description: SANGER: Inhibition of human BHY cell growth in a cell viability assay.

[6] = test system: LCLC-103H cell line; type: functional, cell-based, Homo sapiens; conditions: Homo sapiens, LCLC-103H
Description: SANGER: Inhibition of human LCLC-103H cell growth in a cell viability assay.

[7] = test system: NCI-H1563; type: functional, cell-based, Homo sapiens; conditions: Homo sapiens, NCI-H1563;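 note: growth inhibition of human NCI-H1563 cells, read out with a cell viability assay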
Description: SANGER: Inhibition of human NCI-H1563 cell growth in a cell viability assay.

[8] = test system: SNU-C2B; type: functional, cell-based, Homo sapiens; conditions: Homo sapiens, SNU-C2B;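 note: cell viability readout used to measure compound-driven suppression of SNU-C2B cell proliferation, IC50 marking half-maximal growth inhibition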
Description: SANGER: Inhibition of human SNU-C2B cell growth in a cell viability assay.

[9] = test system: NCI-H1437; type: functional, cell-based, Homo sapiens; conditions: Homo sapiens, NCI-H1437;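 note: growth inhibition of human NCI-H1437 cells, read out by a cell viability assay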
Description: SANGER: Inhibition of human NCI-H1437 cell growth in a cell viability assay.

[10] = test system: 8-MG-BA; type: functional, cell-based, Homo sapiens; conditions: Homo sapiens, 8-MG-BA;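 note: growth inhibition of 8-MG-BA cells, read out with a cell viability assay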
Description: SANGER: Inhibition of human 8-MG-BA cell growth in a cell viability assay.

[11] = test system: D-542MG; type: functional, cell-based, Homo sapiens; conditions: Homo sapiens, D-542MG
Description: SANGER: Inhibition of human D-542MG cell growth in a cell viability assay.

[12] = test system: KLE; type: functional, cell-based, Homo sapiens; conditions: Homo sapiens, KLE;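 note: growth inhibition of human KLE cells, read out with a cell viability assay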
Description: SANGER: Inhibition of human KLE cell growth in a cell viability assay.

[13] = test system: SK-HEP1; type: functional, cell-based, Homo sapiens, SK-HEP-1; conditions: Homo sapiens, SK-HEP1;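 note: cell viability readout used to quantify reduction in proliferation of human SK-HEP-1 cells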
Description: SANGER: Inhibition of human SK-HEP-1 cell growth in a cell viability assay.

[14] = test system: M059J; type: functional, cell-based, Homo sapiens; conditions: Homo sapiens, M059J;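 note: growth inhibition of M059J cells, read out with a cell viability assay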
Description: SANGER: Inhibition of human M059J cell growth in a cell viability assay.

[15] = test system: COLO-678; type: functional, cell-based, Homo sapiens; conditions: Homo sapiens, COLO-678
Description: SANGER: Inhibition of human COLO-678 cell growth in a cell viability assay.

[16] = test system: LB996-RCC; type: functional, cell-based; conditions: Homo sapiens
Description: SANGER: Inhibition of human LB996-RCC cell growth in a cell viability assay.

[17] = test system: OAW-28; type: functional, cell-based, Homo sapiens; conditions: Homo sapiens, OAW-28;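 note: growth inhibition of OAW-28 cells, read out with a cell viability assay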
Description: SANGER: Inhibition of human OAW-28 cell growth in a cell viability assay.

[18] = test system: MSTO-211H; type: functional, cell-based, Homo sapiens; conditions: Homo sapiens, MSTO-211H
Description: SANGER: Inhibition of human MSTO-211H cell growth in a cell viability assay.

[19] = test system: COR-L88; type: functional, cell-based; conditions: Homo sapiens;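 note: growth inhibition of COR-L88 cells, read out with a cell viability assay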
Description: SANGER: Inhibition of human COR-L88 cell growth in a cell viability assay.

[20] = test system: MKN-7; type: functional, cell-based, Homo sapiens; conditions: Homo sapiens, MKN-7;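 note: growth inhibition of MKN-7 cells, read out with a cell viability assay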
Description: SANGER: Inhibition of human MKN7 cell growth in a cell viability assay.

[21] = test system: TE-11; type: functional, cell-based, Homo sapiens; conditions: Homo sapiens, TE-11;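 note: growth inhibition of human TE-11 cells, read out by a cell viability assay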
Description: SANGER: Inhibition of human TE-11 cell growth in a cell viability assay.

[22] = test system: KM12; type: functional, cell-based, Homo sapiens; conditions: Homo sapiens, KM12;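 note: KM12 cell growth inhibition, read out with a cell viability assay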
Description: SANGER: Inhibition of human KM12 cell growth in a cell viability assay.

[23] = test system: HTC-C3; type: functional, cell-based, Homo sapiens; conditions: Homo sapiens, HTC-C3;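 note: inhibition of cell growth, read out with a cell viability assay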
Description: SANGER: Inhibition of human HTC-C3 cell growth in a cell viability assay.

[24] = test system: KP-4; type: functional, cell-based, Homo sapiens; conditions: Homo sapiens, KP-4; read-out: IC50;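 note: human KP-4 cells, with growth inhibition read out through a cell viability assay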
Description: SANGER: Inhibition of human KP-4 cell growth in a cell viability assay.

[25] = test system: Ramos-2G6-4C10; type: functional, cell-based; conditions: Homo sapiens;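 note: growth inhibition of the cell line, measured by a cell viability read-out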
Description: SANGER: Inhibition of human Ramos-2G6-4C10 cell growth in a cell viability assay.

[26] = test system: ACHN; type: functional, cell-based, Homo sapiens; conditions: Homo sapiens, ACHN;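 note: cell viability read-out used to gauge how strongly growth of human ACHN cells is suppressed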
Description: SANGER: Inhibition of human ACHN cell growth in a cell viability assay.

[27] = test system: MDA-MB-361; type: functional, cell-based, Homo sapiens; conditions: Homo sapiens, MDA-MB-361
[28] = test system: SW982; type: functional, cell-based; conditions: Homo sapiens;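 note: growth inhibition of SW982 cells, read out with a cell viability assay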
Description: SANGER: Inhibition of human SW982 cell growth in a cell viability assay.

[29] = test system: PFSK-1; type: functional, cell-based, Homo sapiens; conditions: Homo sapiens, PFSK-1;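 note: cell viability assay measuring how strongly compounds suppress growth of human PFSK-1 cells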
Description: SANGER: Inhibition of human PFSK-1 cell growth in a cell viability assay.

[30] = test system: KYSE-180; type: functional, cell-based, Homo sapiens; conditions: Homo sapiens, KYSE-180;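 note: growth inhibition of KYSE-180 cells, read out with a cell viability assay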
Description: SANGER: Inhibition of human KYSE-180 cell growth in a cell viability assay.

[31] = test system: NOS-1; type: functional, cell-based, Homo sapiens; conditions: Homo sapiens, NOS-1;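 note: growth inhibition of the human NOS-1 cell line, read out with a cell viability assay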
Description: SANGER: Inhibition of human NOS-1 cell growth in a cell viability assay.

[32] = test system: A204; type: functional, cell-based, Homo sapiens; conditions: Homo sapiens, A204;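 note: growth inhibition of human A204 cells, read out with a cell viability assay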
Description: SANGER: Inhibition of human A204 cell growth in a cell viability assay.

[33] = test system: EFO-27; type: functional, cell-based, Homo sapiens; conditions: Homo sapiens, EFO-27;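 note: growth inhibition of EFO-27 cells, read out with a cell viability assay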
Description: SANGER: Inhibition of human EFO-27 cell growth in a cell viability assay.

[34] = test system: CAKI-1; type: functional, cell-based, Homo sapiens; conditions: Homo sapiens, CAKI-1;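 note: growth inhibition of CAKI-1 cells, measured by a cell viability assay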
Description: SANGER: Inhibition of human CAKI-1 cell growth in a cell viability assay.

[35] = test system: FaDu; type: functional, cell-based, Homo sapiens; conditions: Homo sapiens, FaDu;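 note: cell viability readout of growth inhibition in FaDu cells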
Description: SANGER: Inhibition of human FADU cell growth in a cell viability assay.

[36] = test system: MDA-MB-175-VII; type: functional, cell-based, Homo sapiens; conditions: Homo sapiens, MDA-MB-175-VII
[37] = test system: MDA-MB-415; type: functional, cell-based; conditions: Homo sapiens
[38] = test system: EM-2; type: functional, cell-based; conditions: Homo sapiens;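 note: growth inhibition of EM-2 cells, read out with a cell viability assay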
Description: SANGER: Inhibition of human EM-2 cell growth in a cell viability assay.

[39] = test system: KNS-42; type: functional, cell-based, Homo sapiens; conditions: Homo sapiens, KNS-42;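 note: growth inhibition of KNS-42 cells, read out with a cell viability assay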
Description: SANGER: Inhibition of human KNS-42 cell growth in a cell viability assay.

[40] = test system: HuCCT-1; type: functional, cell-based, Homo sapiens, HuCCT1; conditions: Homo sapiens, HuCCT-1;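 note: growth inhibition of HuCCT-1 cells, read out by a cell viability assay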
Description: SANGER: Inhibition of human HuCCT1 cell growth in a cell viability assay.

[41] = test system: ES7; type: functional, cell-based, Homo sapiens; conditions: Homo sapiens, ES7;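 note: growth inhibition of cultured human ES7 cells, read out as cell viability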
Description: SANGER: Inhibition of human ES7 cell growth in a cell viability assay.

[42] = test system: KP-N-YS; type: functional, cell-based; conditions: Homo sapiens;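 note: cell viability assay measuring inhibition of cell line growth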
Description: SANGER: Inhibition of human KP-N-YS cell growth in a cell viability assay.

[43] = test system: D-336MG; type: functional, cell-based, Homo sapiens; conditions: Homo sapiens, D-336MG
Description: SANGER: Inhibition of human D-336MG cell growth in a cell viability assay.

[44] = test system: GR-ST; type: functional, cell-based; conditions: Homo sapiens
Description: SANGER: Inhibition of human GR-ST cell growth in a cell viability assay.

[45] = test system: RPMI-2650; type: functional, cell-based, Homo sapiens; conditions: Homo sapiens, RPMI-2650
Description: SANGER: Inhibition of human RPMI-2650 cell growth in a cell viability assay.

[46] = test system: SK-MEL-30; type: functional, cell-based; conditions: Homo sapiens;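 note: growth inhibition of SK-MEL-30 cells, determined with a cell viability assay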
Description: SANGER: Inhibition of human SK-MEL-30 cell growth in a cell viability assay.

[47] = test system: NCI-H358; type: functional, cell-based, Homo sapiens; conditions: Homo sapiens, NCI-H358;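 note: growth inhibition of NCI-H358 human cells, read out with a cell viability assay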
Description: SANGER: Inhibition of human NCI-H358 cell growth in a cell viability assay.

[48] = test system: HSC-2; type: functional, cell-based, Homo sapiens; conditions: Homo sapiens, HSC-2;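 note: growth inhibition of human HSC-2 cells, read out by a cell viability assay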
Description: SANGER: Inhibition of human HSC-2 cell growth in a cell viability assay.

[49] = test system: NMC-G1; type: functional, cell-based, Homo sapiens; conditions: Homo sapiens, NMC-G1;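 note: growth inhibition of the NMC-G1 cell line, measured with a cell viability read-out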
Description: SANGER: Inhibition of human NMC-G1 cell growth in a cell viability assay.

[50] = test system: Ca9-22; type: functional, cell-based, Homo sapiens; conditions: Homo sapiens, Ca9-22;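 note: growth inhibition of Ca9-22 cells, read out with a cell viability assay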
Description: SANGER: Inhibition of human Ca9-22 cell growth in a cell viability assay.

Measured: IC50

CN(c1ncccc1CNc1nc(Nc2ccc3c(c2)CC(=O)N3)ncc1C(F)(F)F)S(C)(=O)=O [PF-00562271]
2520 nM: [33]
328 nM: [28]
386 nM: [22]
1540 nM: [48]
1640 nM: [21]
2290 nM: [30]
1560 nM: [6]
1860 nM: [43]
1660 nM: [5]
> 2560 nM: all other assays above

O=c1cc(-c2cccc3c2Sc2ccccc2S3)oc(N2CCOCC2)c1 [KU-55933]
9210 nM: [22]
9810 nM: [9]
not listed: [19]
> 10000 nM: all other assays above

C=CCc1cccc(/C=N/NC(=O)CN2CCN(Cc3ccccc3)CC2)c1O [PAC-1]
1460 nM: [40]
1120 nM: [6]
1690 nM: [26]
1240 nM: [47]
2230 nM: [9]
not listed: [43]
> 2560 nM: all other assays above
